Reference: patent EP3281632A1, “ARGON FOR USE IN THE PREVENTION OF BOTH CARDIAC AND CEREBRAL INJURY INDUCED BY ISCHEMIA/REPERFUSION FOLLOWING CARDIAC ARREST” (Societa'Italiana Acetilene & Derivati S.I.A.D. S.p.A. in …, priority 2016, dated 2018)

Columns and labels:
[1] = test system: cardiac arrest and CPR in the pig; test: Severe model of cardiac arrest and CPR in the pig, 4 hr ventilation after CPR; type: in vivo; design: circulating levels of hs-cTnT (median): unit not given here
Procedure: In a severe model of cardiac arrest and CPR in the pig, treatment with inhaled argon allowed for concurrent cardiac and cerebral protection. After 12 min of untreated cardiac arrest and 5 min of CPR, animals were subjected to 4 hr ventilation with (a) 70% argon - 30% 02 or (b) 70% N2 - 30% 02.

[2] = test system: acute myocardial infarction by LAD occlusion in the rat; test: Model of acute myocardial infarction by LAD occlusion in the rat; type: in vivo
Procedure: In a model of acute myocardial infarction by LAD occlusion in the rat, ventilation with argon reduced myocardial injury. More in details, the LAD occlusion was removed after 30 min; 5 min before reperfusion, animals were randomized to 1 hour ventilation with: (1) 70% argon - 30% oxygen; or (2) 70% nitrogen - 30% oxygen. […] Moreover, a reduced inflammatory response in terms of neutrophil infiltration in the argon ventilation group compared to control group was observed (72 cells/mm^2 vs. 92 cells/mm^2).

[3] = test system: left anterior descending coronary artery occlusion (LAD); conditions: rabbits; three 5-min cycles of 70% argon in oxygen prior to 30 min LAD occlusion; in comparison to control ventilation; cited from earlier work
cardiac arrest, pigs = conditions: cited from earlier work
[4] = test system: rats resuscitated after cardiac arrest; conditions: post resuscitation ventilation with 70% argon, cited from earlier work
[5] = test system: cardiac arrest and CPR in the rat; test: Model of cardiac arrest and CPR in the rat, argon ventilation started during CPR; type: in vivo
Procedure: In a model of cardiac arrest and CPR in the rat, treatment with inhaled argon was initiated early, concurrently with chest compression prior to resuscitation. After 7 min of untreated cardiac arrest, 5 min of CPR were initiated and animals were subjected to ventilation with (a) 70% argon - 30% 02 or (b) 70% N2 - 30% 02. The above ventilation strategies were continued up to 2 hrs following resuscitation.

[6] = during the 4 hr of observation, compared to controls
[7] = argon during CPR and up to 2 hrs after resuscitation, compared to controls

[Ar] [argon]
Cerebral Performance Category ([1]; 12 min untreated cardiac arrest, 5 min CPR, 4 hr ventilation with 70% argon - 30% 02, control 3.4 ± 1.6): 1.7 ± 1.3 | circulating levels of NSE (median) ([1]; 4 hr ventilation 70% argon - 30% 02, control 21.2 ng/mL, p not significant): 8.5 ng/mL | circulating levels of hs-cTnT (median) ([1]; 4 hr ventilation 70% argon - 30% 02, control 8015 ng/mL, p < 0.05): 1332 | myocardial infarct size ([1]; after argon treatment, compared to controls): significantly lower | heart rate [1, 6]: significantly lower | mean arterial pressure [1, 6]: higher | stroke volume [1, 6]: higher | recovery of systolic myocardial function ([1]; evaluated echocardiographically at 96 hr, compared to controls): significantly better recovery | plasma level of myocardial troponin T ([2]; 30 min LAD occlusion, 1 hour ventilation 70% argon - 30% oxygen from 5 min before reperfusion, after 6 hours, control 7432 ng/l, p < 0.05): 3128 ng/L | neutrophil infiltration ([2]; LAD occlusion, argon ventilation group, control 92 cells/mm^2): 72 cells/mm^2 | reduction of myocardial infarct size [3]: 22% | neurological recovery (cardiac arrest, pigs; 70% argon-30% oxygen after ROSC, in contrast to nitrogen and oxygen): fast and complete | post resuscitation increase in plasmatic cardiac troponin T (cardiac arrest, pigs; 8 min untreated cardiac arrest, 5 min CPR, 70% argon-30% oxygen after ROSC): three-fold lower | brain injury (histopathology) (cardiac arrest, pigs; compared to control): lesser brain injury | respiratory exchange or arterial blood gases (cardiac arrest, pigs; ventilation with argon): did not impair | neurological deficit score ([4]; at all time points): significant improvements | neuronal injury (histology) [4]: significant reduction | resuscitation rate ([5]; 7 min untreated cardiac arrest, 5 min CPR with 70% argon - 30% 02 ventilation, control 85%): 93% | post resuscitation coronary perfusion pressure [5, 7]: higher | post resuscitation mean arterial pressure [5, 7]: higher | lactate/pyruvate ratio in the hippocampus ([5]; cerebral microdialysis, compared to controls): lower | left ventricle ejection fraction ([5]; compared to the control ventilation): trend toward better | neurological recovery ([5]; compared to those ventilated with nitrogen and oxygen): significantly faster and better | troponin T release ([5]; trend, compared to the control ventilation): lower
